Data taken from US12180159B2, “Activators of the unfolded protein response” (The Board of Trustees of the University of Illinois, priority 2018, dated 2024).

What was measured:
[1] = tested on: T47D, TYS-4 and TDG-1 cells; assay: MTS proliferation assay, T47D, TYS and TDG cells; format: cell-based, human; conditions: 4 days
Protocol: FIG. 30 compares the ability of BHPI and test compounds to inhibit proliferation of T47D, TYS and TDG cells. T47D cells were in medium containing 10 FBS (which contains estrogen), TYS-4 and TDG-1 cells were in medium containing 10% cd-FBS (estrogen depleted). Cells are plated at 2,000 cells/well in 96 well plates. After 24 hours in medium containing FBS or charcoal-dextran treated FBS (depleted of endogenous estrogens), the indicated concentration of each compound (in DMSO at 1/1000th of the volume of medium) was added. After 2 days the medium was changed, and the compounds were added again. After 2 additional days (4 days total) MTS assays are used to evaluate cell proliferation. (n=6±S.E.M.).

[2] = tested on: MCF-7 and TYS-Luc cells; assay: Cell death with 2-APB or thapsigargin (Trypan Blue exclusion); format: cell-based, human; conditions: 2-APB
Protocol: ERα positive MCF-7 and TYS-Luc were treated with DMSO vehicle (Veh), or BHPI or (−)-105 plus or minus 2-APB for the indicated times. Cells death was determined using the instrument-based Trypan Blue exclusion assay. […] This is consistent with (−)-105 inducing powerful lethal activation of the anticipatory UPR pathway. (n=3±SEM). […] TYS-Luc cells were maintained in DMSO vehicle (Veh) or BHPI, or (−)-105 with or without thapsigargin (THG) for the indicated times. Blocking the decline in ATP levels (FIG. 19) with THG inhibited (−)-105-induced cell death. […] (n=3±SEM).

[3] = tested on: TYS and TDG breast cancer cells; assay: Killing of TYS and TDG breast cancer cells by endocrine therapy drugs; format: cell-based, human
[4] = tested on: MCF-7 ERα Y537S-luciferase cells; assay: Long-term cell culture experiment, MCF-7Y537S cells; format: cell-based, human; conditions: conditions as FIG. 15
[5] = tested on: TDG cells (T47DERαD538G); assay: Trypan Blue exclusion cell death assay, TDG cells; format: cell-based, human; conditions: 24 hours; for killing of TDG-Luc cells: dose response
Description: (§1) TRYPAN BLUE: For decades, viable cells have been measured by their ability to exclude the dye Trypan Blue. […] Dead cells, which have lost membrane integrity, take up the dye and are blue. Thus, the percentage of dead cells is the percentage of cells that are Trypan Blue positive out of the total cell population. Quantitative assessment of Trypan Blue uptake uses a cell counter from Fisher. Since the assay is instrument based, there is no observer bias in determining the percentage of Trypan Blue positive cells.
(§2) TRYPAN BLUE ASSAYS: Assays are performed on cells in 6 well plates: 300,000 cells are plated in each well of a 6 well plate in 3 ml of medium. After 24 hours, the DMSO vehicle or the indicated compound is added (in 1000th of the vol.) The cells incubated for an additional 24 hours, and then harvested in 0.25 ml of trypsin, followed after harvest by 0.75 ml of medium. The cells are spun down and resuspended in 100-200 μl of medium left that is over the cell pellet (resuspend cells by pipetting up and down a few times). Add 10 μl to 10 μl of trypan blue. Then 10 μl is inserted into the counting slide. After inserting the slide into the Fisher TC20 counting is automatic (these many cells are needed because an accurate ratio of Trypan Blue positive to Trypan Blue negative cells requires about 200 cells in the field the instrument counts).
The Trypan Blue cell death assay was used to evaluate the ability of the active enantiomer of C-105 [(−)-105] to kill ERα positive TDG-Luc cells. For all studies, 300,000 TDG-Luc cells/well in 10% FBS were plated in a 6 well plate in triplicate. 24 hours after plating, the indicated concentrations the active enantiomer of (−)-105, or BHPI (top) ICI, or OHT (Lower left) or (+)-105 (lower right) were added. After 24 hours, the cells were harvested, and the % dead cells was determined by automated Trypan Blue exclusion using the Countess II automated hemocytometer. Percentage of viable cells was calculated by doing 100−(Cell Death %). (n=3±SEM).
TDG cells were incubated for 24 hours with 75 nM of BHPI or 75 nM of each of the indicated test compounds: 4, 6 and (±)-105 (enantiomers not separated). Cell death was determined using the instrument-based Trypan Blue exclusion assay. Structures are in the Synthesis section. […] (n=3±SEM).

[6] = tested on: ERα positive and ERα negative cell lines; format: cell-based
Protocol: ERα positive MCF-7 breast cancer, Caov-3 ovarian cancer and ECC-1 uterine cancer cells and ERα negative MDA-MB-231 human breast cancer cells and HeLa, human cervical carcinoma cells and MCF-10A human mammary epithelial cells were plated at 10,000 cells/well (96 well plate) in 50 μl of medium. After about 18 hours, an additional 50 μl of medium containing 2× the desired final concentration of the test compound (C-105) was added to each well (final vol. 100 μl/well). After 24 hours Alamar Blue reagent was added and fluorescence in the wells was read after 1 hour (BMG PheraStar Microplate Reader). % relative death was determined by setting the reading for 10,000 nM raptinal-treated cells to 100% dead cells and the reading for vehicle-treated cells to 0% dead cells. (Data is the average±SEM of 3 independent experiments with 5 biological replicates for each sample within each independent experiment.)
FIG. 3 compares the ability of (±)-105 to kill ERα positive and ERα negative cells. The dose response tests the ability of (±)-105 to rapidly kill ERα positive and ERα negative cells. […] After 24 hours Alamar Blue reagent was added and fluorescence in the wells was read. % relative death was determined by setting the reading for […] raptinal-treated cells to 100% dead cells and the reading for vehicle-treated cells to 0% dead cells. […]

[7] = tested on: ERα Negative MCF-10A cells; assay: Trypan Blue exclusion cell death assay, MCF-10A cells; format: cell-based; conditions: 75 nM, 24 hours
Description: as §1, §2
In FIG. 28, neither the test compounds nor BHPI kill non-tumorigenic ERα Negative MCF-10A breast cells. ERα Negative MCF-10A cells were maintained for 24 hours in DMSO vehicle or 75 nM of BHPI or 75 nM of each of the indicated test compounds: 4, 6 and 105. Cell death was determined using the instrument-based Trypan Blue exclusion assay. (n=3±SEM).

[8] = tested on: TYS cells (T47DERαY537S); assay: Trypan Blue exclusion cell death assay, TYS cells; format: cell-based, human; conditions: 24 hours
Description: as §1, §2
TYS cells were incubated for 24 hours with 35 nM of BHPI or 35 nM of each of the indicated test compounds: 2, 4, and 105. Cell death was determined using the instrument-based Trypan Blue exclusion assay. (n=3±SEM).
TYS cells were incubated for 24 hours with 50 nM of BHPI or 50 nM of each of the indicated test compounds: 4, 6 and 105. Cell death was determined using the instrument-based Trypan Blue exclusion assay. (n=3±SEM).

[9] = tested on: Caov-3 cells; assay: Cell death of Caov-3 ovarian cancer cells (automated Trypan Blue exclusion); format: cell-based, human; conditions: 24 hours
Protocol: FIG. 33. 105, but not BHPI, kills therapy-resistant ovarian CaOV-3 ovarian cancer cells. (±)-105; Cell death assay: Automated Trypan Blue exclusion. (24 hours post (±)-105) FIG. 34. (−)105 nearly eradicates ER+ drug-resistant tumors. Orthotopic breast cancer model, TYS-Luc cells, 40 mg/kg (−)-105 i.p., daily. 7 d Post injection image is a much longer exposure at higher gain than before injection image.
Caov3: Drug resistant ERα positive ovarian cancer cells. […] These cells are completely resistant to tamoxifen and fulvestrant and partially resistant to cisplatin and paclitaxel.

[10] = tested on: OVCAR-3 cells; conditions: OVCAR-3 orthotopic xenograft
[11] = tested on: MCF-7 tumors; assay: MCF-7 orthotopic tumor model; format: in vivo, mouse; conditions: mouse, in vivo
Protocol: FIG. 39. SERK-F6 eradicates wild-type ERα tumors via hyperactivation of aUPR. a, MCF-7 orthotopic tumors were established in Nu/J ovariectomized mice supplemented with a 60 day E2 pellet (0.36 mg) and grown to ˜400 mm^3 (28 days to establish), randomized, then treated with vehicle daily (n=3), vehicle weekly (n=3), fulv. weekly (5 mg/mouse, s.c., n=6), SERK-F6 daily (10 or 40 mg/kg p.o.). Vehicle arms were averaged. p values: *: p<0.05, **: p<0.01, ***: p<0.001, ****: p<0.0001. Tumor images were taken at the end of the study (day 21) and are representative of all tumors (n=6). b-e, MCF-7 cells were orthotopically bi-laterally grafted and tumors were grown until total tumor burden was ˜ 400 mm^3 prior to daily treatment with vehicle or SERK-F6 (40 mg/kg p.o.). Mice (n=5 per arm) were sacrificed after 3 days (b,c) and 7 days (d,e) and tumors harvested. […] Vinculin (Vin) was used as a loading control. […] Error bars represent S.E.M.
FIG. 40. SERK-F6 is tolerated, reaches biologically relevant concentrations, and crosses the blood-brain barrier in vivo. a, Serum concentrations of SERK-F6 after indicated doses, route of administration, and time. Concentration was determined via LC/MS/MS analysis. […] AUC: Area Under the Curve, Cmax: maximum concentration, t1/2: half-life. c,d, Mice (CD-1) were treated with the indicated doses and times, then sacrificed and their serum and brains collected. Concentrations were determined via LC/MS/MS analysis. […] Treatment arms: vehicle daily (n=3), vehicle weekly (n=3), fulv. weekly (5 mg/mouse, s.c., n=6), SERK-F6 daily (10 or 40 mg/kg p.o.). Vehicle arms were combined. g, Mass of tumors harvested from mice. h, observed murine weight during this MCF-7 study (n=6). i,j, Tumor measurements for MCF-7 bilateral orthotopic model (n=4-5).
To probe the efficacy of SERK-F6 for killing ERα positive tumors, large MCF-7 tumors were grown and then intervened with therapy. […] The mice were then sacrificed prior to complete tumor eradication.

COc1ccc(C2(c3ccc(O)cc3)C(=O)Nc3c(C)cccc32)cc1 (centres unmarked) [compound 2, 3-(4-hydroxyphenyl)-3-(4-methoxyphenyl)-7-methylindolin-2-one]
effectiveness in killing ERα positive breast cancer cells compared to BHPI [1]: more effective than BHPI

NCCOB(c1ccccc1)c1ccccc1 [2-APB]
effect on (−)-105-induced cell death ([2]; 45 and 60 min.): partially blocked
effect on (−)-105-induced cell death ([2]; 30 minutes): nearly completely blocked

CC/C(=C(\c1ccccc1)c1ccc(OCCN(C)C)cc1)c1ccccc1 [tamoxifen]
ability to kill TYS and TDG breast cancer cells [3]: no ability at all to kill

O=C1Nc2c(C(F)(F)F)cccc2C1(c1ccc(O)cc1)c1ccc(OC(F)(F)F)cc1 (single isomer, unassigned; (+)) [(+)-105, 3-(4-hydroxyphenyl)-3-(4-(trifluoromethoxy)phenyl)-7-(trifluoromethyl)indolin-2-one]
effect on MCF-7Y537S cells in long-term experiments [4]: inactive
killing of TDG-Luc cells [5]: inactive and does not kill
effect of the inactive enantiomer in ERα positive and ERα negative cell lines [6]: ineffective and not toxic

Cc1cccc2c1NC(=O)C2(c1ccc(O)cc1)c1ccc(OC(F)(F)F)cc1 (centres unmarked) [compound 6, 3-(4-hydroxyphenyl)-7-methyl-3-(4-(trifluoromethoxy)phenyl)indolin-2-one]
death of ERα Negative MCF-10A cells [7]: neither BHPI nor any of the test compounds induce significant death
effectiveness in killing ERα positive breast cancer cells compared to BHPI [1]: more effective than BHPI

O=C1Nc2c(C(F)(F)F)cccc2C1(c1ccc(O)cc1)c1ccc(OC(F)(F)F)cc1 (racemic) [(±)-105, 3-(4-hydroxyphenyl)-3-(4-(trifluoromethoxy)phenyl)-7-(trifluoromethyl)indolin-2-one]
death of ERα Negative MCF-10A cells [7]: neither BHPI nor any of the test compounds induce significant death
ability to kill TYS cells compared to BHPI ([8]; 35 nM): greatly increased ability to kill
ability to kill TYS cells compared to BHPI ([8]; 50 nM): increased ability to kill
ability to kill TDG cells compared to BHPI ([5]; 75 nM): greatly increased ability to kill
killing of Caov-3 ovarian cancer cells [9]: kills
selectivity for ERα positive cancer cell lines ([6]; 0-10,000 nM, 24 hours): selective for ERα positive cancer cell lines
effectiveness in killing ERα positive breast cancer cells compared to BHPI [1]: more effective than BHPI

CC(=O)O[C@H]1C(=O)[C@@]2(C)[C@H]([C@H](OC(=O)c3ccccc3)[C@]3(O)C[C@H](OC(=O)[C@H](O)[C@@H](NC(=O)c4ccccc4)c4ccccc4)C(C)=C1C3(C)C)[C@]1(OC(C)=O)CO[C@@H]1C[C@@H]2O [paclitaxel]
effect on tumor growth / tumors [10]: ineffective

C[C@]12CC[C@@H]3c4ccc(O)cc4C[C@@H](CCCCCCCCC[S+]([O-])CCCC(F)(F)C(F)(F)F)[C@H]3[C@@H]1CC[C@@H]2O (some centres unmarked) [fulvestrant, reference compound]
ability to kill TYS and TDG breast cancer cells [3]: no ability at all to kill
killing of TDG-Luc cells [5]: do not kill
effect on large established MCF-7 tumors [11]: dramatic effects against these large and established tumors are not obtained
